Experimental data taken from paper PMC10964431 (European journal of medicinal chemistry, 2024).

What was measured:
Test in all cases: Anti-SARS-CoV-2 activity against VOCs, WST-8 assay in VeroE6 cells
Assay type in all cases: cell-based
Details in all cases: one range stated for beta, gamma and omicron
SARS-CoV-2^TY8 (Beta) = test system: SARS-CoV-2^TY8 (Beta)
SARS-CoV-2^TY7 (Gamma) = test system: SARS-CoV-2^TY7 (Gamma)
SARS-CoV-2^929 (Omicron) = test system: SARS-CoV-2^929 (Omicron)

CC(C)(C)[C@H](NC(=O)C(Cl)(Cl)Cl)C(=O)N1C[C@H]2[C@@H]([C@H]1C(=O)N[C@H](C#N)C[C@@H]1CCCNC1=O)C2(C)C [Compound 5f, (1R,2S,5S)-N-((S)-1-Cyano-2-((S)-2-oxopiperidin-3-yl)ethyl)-3-((S)-3,3-dimethyl-2-(2,2,2-trichloroacetamido)butanoyl)-6,6-dimethyl-3-azabicyclo[3.1.0]hexane-2-carboxamide]
3–5 fold: loss of antiviral activity against beta variant (SARS-CoV-2^TY8 (Beta)) | loss of antiviral activity against gamma variant (SARS-CoV-2^TY7 (Gamma)) | loss of antiviral activity against omicron variant (SARS-CoV-2^929 (Omicron))
